Results: patent publication US20250195461A1, “Fibrate Compositions for Treating Inflammation and Neuroinflammation” (TRx Biosciences Limited, priority 2022, published 2025)

test: not given; settings: reported value; cited from earlier work

SMILES | critical micellar concentration (CMC) [mM]
CCCCCCCC/C=C\CCCCCCCC(=O)O [oleic acid] | 2.3
CCCCCCCCCCCCCCCCCC(=O)[O-].[Na+] [sodium stearate] | 0.071

test: Miscibility / self-emulsification in dissolution media modelling ICH dissolution testing; assay type: physicochemical; settings: 1 g of 100% or 75% preparation in 1 L PBS with […] curcumin, 37° C., 300 rpm 10 min, then 10 min without stirring
Protocol: To assess whether oleic acid could self-emulsify at the concentrations used in the disclosed pharmaceutical compositions, experiments was performed that were designed to model dissolution testing according to International Council for Harmonisation (ICH) guidelines. One liter of a dissolution media comprising phosphate buffered saline (PBS) and 2.5% curcumin was warmed to 37° C. and constant stirring at 300 rpm maintained. Curcumin was added as a coloring agent and was very effective at visualizing the distribution of lipids through the dissolution media. Miscibility experiments were performed using two concentrations of oleic acid nominally above the CMC concentration for this fatty acid. In one series of experiments, 1 g of 100% oleic acid was added to the dissolution media. The control compound was 1 g of 100% MAISINE™ CC. In a second series of experiments 1 g of 75% oleic acid (diluted with 250 mg of MAISINE™ CC) was added to the dissolution media. The control compound was 1 g of 75% MAISINE™ CC. The miscibility of oleic acid and MAISINE™ CC was assessed by observing the dissolution media for 10 minutes with constant stirring and then 10 minutes without stirring. Photographs were taken at time 0, 1, 2, 3, 4, 5 and 10 minutes during the stirring phase and 2, 4 and 10 minutes after stirring ceased.

miscibility in dissolution media | SMILES
not miscible | CCCCCCCC/C=C\CCCCCCCC(=O)O [oleic acid]

test: not given; settings: cited from earlier work

SMILES | log P
CC(C)(Oc1ccc(CCNC(=O)c2ccc(Cl)cc2)cc1)C(=O)O [bezafibrate] | 4.0
CC(C)(Oc1ccc(C2CC2(Cl)Cl)cc1)C(=O)O (centres unmarked) [ciprofibrate] | 3.6
CCC(C)(Oc1ccc(C2(c3ccc(OC(C)(CC)C(=O)O)cc3)CCCCC2)cc1)C(=O)O (centres unmarked) [clinofibrate] | 7.5
CCOC(=O)C(C)(C)Oc1ccc(Cl)cc1 [clofibrate] | 3.4
CN(C)C(=O)CCCOC(=O)C(C)(C)Oc1ccc(Cl)cc1 [clofibride] | 2.8
CC(C)(Oc1ccc(Cl)cc1)C(=O)OCCOC(=O)c1cccnc1 [etofibrate] | 3.5
CC(C)(Oc1ccc(C(=O)c2ccc(Cl)cc2)cc1)C(=O)O [fenofibric acid] | 4.4
Cc1ccc(C)c(OCCCC(C)(C)C(=O)O)c1 [gemfibrozil] | 4.4
CC(C)(Oc1ccc(C2CCCc3ccccc32)cc1)C(=O)O (centres unmarked) [nafenopin] | 4.9
CC(C)(Oc1ccc(Cl)cc1)C(=O)OCCCOC(=O)c1cccnc1 [ronifibrate] | 3.9
CC(C)(Oc1ccc(Cl)cc1)C(=O)OCCCOC(=O)C(C)(C)Oc1ccc(Cl)cc1 [simfibrate] | 6.2
